Results on eleven molecules are retold here after patent US9156831B2, “Chemical compounds” (ASTRAZENECA AB, priority 2013, dated 2015).

One test has as its target PI3K-β (Homo sapiens (Human), UniProt P42338). Kind of test: In vitro enzyme inhibition assay (Kinase Glo). The class given is biochemical. Particulars: Test protocol a; mean of replicates. The procedure:
(§1) The inhibition of PI3K-β, PI3K-α, PI3K-γ and PI3K-δ was evaluated in a Kinase Glo based enzyme activity assay using human recombinant enzymes. The assay platform indirectly measured the depletion of ATP after incubation with enzyme, PIP2 substrate, ATP and compound.
(§2) After completion of the enzyme reaction the remaining ATP was used in a secondary enzymatic reaction, where Luciferase converted beetle luciferin into oxyluciferin under the emission of light. A direct relationship existed between the luminescence measured and the ATP remaining in a completed kinase reaction. Therefore, the luminescence was inversely related to the kinase activity.
(§3) Compounds in 100% DMSO were added to assay plates by acoustic dispensing. PI3K enzyme was added in a Tris buffer (50 mM Tris pH7.4, 0.05% CHAPS, 2.1 mM DTT, and 10 mM magnesium chloride) and allowed to preincubate with compound for 20 minutes prior to addition of substrate solution containing PIP2 and ATP. The enzyme reaction was stopped after 80 minutes by the addition of Kinase Glo detection solution containing Lucferin and Luciferase (from Kinase Glo® Plus Luminecent Kinase Assay kit (Promega #V3772). Plates were left for 30 minutes at room temperature then read on a Pherastar Instrument with a standard Luminescence filter block. The final concentration of DMSO, ATP and PIP2 in the assay were, 1%, 8 μM, and 80 μM respectively.
(§4) IC50 values were calculated using a log curve fitting to a non-linear regression fit.
(In general: Kinase-Glo measures the ATP left after a reaction by luminescence.)

The next test has as its target PI3K-δ (Homo sapiens (Human), UniProt O00329). Briefly: In vitro enzyme inhibition assay (Kinase Glo). The test is classed as biochemical. Particulars: Test protocol a; mean of replicates. The procedure: as §1, §2, §3, §4
The next test deals with ATR kinase (Homo sapiens (Human), UniProt Q13535). Briefly: Phospho Chk1 (Ser345) in HT29 cells (ATR cell assay). The class given is cell-based. The following applies: Test protocol f, one test replicate only. The source says:
ATR (Ataxia Telangiectasia+Rad3-related kinase) is a PI3-kinase-related kinase which phosphorylates multiple substrates on serine or threonine residues in response to DNA damage or replication blocks. Chk1, a downstream protein kinase of ATR, plays a key role in DNA damage checkpoint control. Activation of Chk1 involves phosphorylation of Ser317 and Ser345 (the latter regarded as the preferential target for phosphorylation/activation by ATR).
This was a cell based assay to measure inhibition of ATR kinase, by measuring a decrease in phosphorylation of Chk1 (Ser 345) in HT29 cells, following treatment with compound and the UV mimetic 4NQO (Sigma #N8141). HT29 cells (ECACC #85061109) were seeded into 384 well assay plates (Costar #3712) at a density of 6000 cells/well in 40 μl EMEM medium containing 1% L glutamine and 10% FBS and allowed to adhere overnight. The following morning compounds in 100% DMSO were added to assay plates by acoustic dispensing. After 1 hour incubation at 37° C. and 5% CO2, 40 nl of 3 mM 4NQO in 100% DMSO was added to all wells by acoustic dispensing, except minimum control wells which were left untreated with 4NQO to generate a null response control. Plates were returned to the incubator for a further 1 hour. Then cells were fixed by adding 20 μl of 3.7% formaldehyde in PBS solution and incubating for 20 mins at room temperature. Then 20 μl of 0.1% Triton X100 in PBS was added and incubated for 10 minutes at room temperature, to permeabalise cells. Then the plates were washed once with 50 μl/well PBS, using a Biotek EL405 plate washer.
Phospho-Chk1 Ser 345 antibody (Cell Signalling Technology #2348) was diluted 150 fold in PBS containing 0.05% polysorbate/Tween and 15 μl was added to each well and incubated over night at room temperature. The next morning plates were washed three times with 50 μl/well PBS, using a Biotek EL405 plate washer, and then 20 μl of secondary Ab solution, containing 500 fold diluted Alexa Fluor 488 Goat anti-rabbit IgG (Molecular Probes #A-11008) and 0.002 mg/ml Hoeschst dye (Molecular Probes #H-3570), in PBST, was added. After 2 hours incubation at room temperature, the plates were washed three times with 50 μl/well PBS, using a Biotek EL405 plate washer, and plates were then sealed with black plate seals until read. Plates were read using an ArrayScan VTI instrument, using an XF53 filter with 10× objective. A two laser set up was used to analyse nuclear staining with Hoeschst (405 nM) and secondary antibody staining of pChk1 (488 nM).

Another test relates to BT474 xenograft. Briefly: Tumour growth inhibition, BT474 xenograft model. The class given is in vivo, mouse. The protocol:
BT474 is an estrogen receptor positive breast tumour cell lines with elevated Her2 expression and carries a mutation in the PIK3CA gene (K111N). Female Swiss athymic nude mice (swiss nu/nu-AZUK) were transplanted subcutaneously with human epithelial breast ductal carcinoma cell line BT474c (derived in AZ from BT474-ATCC HTB-20) tumours passaged in mice. Mice were implanted with 0.36 mg 60 day oestrogen pellet (Innovative Research of America) 24 hours prior to cell implantation. 5×10^6 cells in 50% matrigel (BD Bioscience) were injected s.c. on the left flank of the animals.
(§5) Animals were randomised into groups of 10-15 when tumours reached a volume of ˜200-300 mm^3 and treatment commenced. Animals were dosed for 3-4 weeks by peroral route, with compound in a suitable vehicle at defined doses and schedules. Tumours were measured two-three times weekly by caliper and volume of tumours calculated using elliptical formula (pi/6×width×width×length).

Another test deals with MCF7 xenograft. Kind of test: Tumour growth inhibition, MCF7 xenograft model. Particulars: olaparib alone 100 mg/kg QD every day; FIG. 12. The test is classed as in vivo, mouse. The protocol: MCF7 is an estrogen receptor positive breast tumour cell line carrying a mutation in the PIKC3CA gene (E545K). […] SCID mice (AZ UK) were transplanted subcutaneously (s.c.) with human breast adenocarcinoma cell line MCF7 (ICRF London) to determine anti-tumour activity of PI3 kinase inhibitors. Mice were implanted with a 0.5 mg 21 day oestrogen pellet (Innovative Research of America) 24 hours prior to cell implantation. 5×10^6 cells in 50% matrigel (BD Bioscience) were injected s.c. on the left flank of the animals.
as §5

Test [1] concerns the target PI3K-α (Homo sapiens (Human), UniProt P42336, K111N). Kind of test: Phosphorylated AKT (Thr308) in BT474 cells (PI3K-α cell assay). The test is classed as cell-based. Particulars: Test protocol c, mean of replicates.
The target in test [2] is PI3K-α (Homo sapiens (Human), UniProt P42336). Kind of test: In vitro enzyme inhibition assay (Kinase Glo). Particulars: Test protocol a; mean of replicates. The class given is biochemical. The procedure:
as §1, §2, §3, §4

The subject of a further test is HCC70 xenograft. Kind of test: Tumour growth inhibition, HCC70 xenograft model. The class given is in vivo, mouse. Particulars: AZD8186 alone 50 mg/kg BID every day; FIG. 13. The procedure: HCC70 is breast tumour cell line which is deficient in PTEN gene expression. Female Swiss athymic nude mice (swiss nu/nu—AZUK) were transplanted subcutaneously with the breast ductal epithelial tumour cell line HCC70 (ATCC—CRL2315) cells. 1×10^6 cells in 50% matrigel (BD Bioscience) were injected s.c. on the left flank of the animals.
as §5

SMILES strings stand for the structures. A value given as a limit tells only on which side of the number the result lay.

Sequence of ATR kinase (Q13535 whole entry): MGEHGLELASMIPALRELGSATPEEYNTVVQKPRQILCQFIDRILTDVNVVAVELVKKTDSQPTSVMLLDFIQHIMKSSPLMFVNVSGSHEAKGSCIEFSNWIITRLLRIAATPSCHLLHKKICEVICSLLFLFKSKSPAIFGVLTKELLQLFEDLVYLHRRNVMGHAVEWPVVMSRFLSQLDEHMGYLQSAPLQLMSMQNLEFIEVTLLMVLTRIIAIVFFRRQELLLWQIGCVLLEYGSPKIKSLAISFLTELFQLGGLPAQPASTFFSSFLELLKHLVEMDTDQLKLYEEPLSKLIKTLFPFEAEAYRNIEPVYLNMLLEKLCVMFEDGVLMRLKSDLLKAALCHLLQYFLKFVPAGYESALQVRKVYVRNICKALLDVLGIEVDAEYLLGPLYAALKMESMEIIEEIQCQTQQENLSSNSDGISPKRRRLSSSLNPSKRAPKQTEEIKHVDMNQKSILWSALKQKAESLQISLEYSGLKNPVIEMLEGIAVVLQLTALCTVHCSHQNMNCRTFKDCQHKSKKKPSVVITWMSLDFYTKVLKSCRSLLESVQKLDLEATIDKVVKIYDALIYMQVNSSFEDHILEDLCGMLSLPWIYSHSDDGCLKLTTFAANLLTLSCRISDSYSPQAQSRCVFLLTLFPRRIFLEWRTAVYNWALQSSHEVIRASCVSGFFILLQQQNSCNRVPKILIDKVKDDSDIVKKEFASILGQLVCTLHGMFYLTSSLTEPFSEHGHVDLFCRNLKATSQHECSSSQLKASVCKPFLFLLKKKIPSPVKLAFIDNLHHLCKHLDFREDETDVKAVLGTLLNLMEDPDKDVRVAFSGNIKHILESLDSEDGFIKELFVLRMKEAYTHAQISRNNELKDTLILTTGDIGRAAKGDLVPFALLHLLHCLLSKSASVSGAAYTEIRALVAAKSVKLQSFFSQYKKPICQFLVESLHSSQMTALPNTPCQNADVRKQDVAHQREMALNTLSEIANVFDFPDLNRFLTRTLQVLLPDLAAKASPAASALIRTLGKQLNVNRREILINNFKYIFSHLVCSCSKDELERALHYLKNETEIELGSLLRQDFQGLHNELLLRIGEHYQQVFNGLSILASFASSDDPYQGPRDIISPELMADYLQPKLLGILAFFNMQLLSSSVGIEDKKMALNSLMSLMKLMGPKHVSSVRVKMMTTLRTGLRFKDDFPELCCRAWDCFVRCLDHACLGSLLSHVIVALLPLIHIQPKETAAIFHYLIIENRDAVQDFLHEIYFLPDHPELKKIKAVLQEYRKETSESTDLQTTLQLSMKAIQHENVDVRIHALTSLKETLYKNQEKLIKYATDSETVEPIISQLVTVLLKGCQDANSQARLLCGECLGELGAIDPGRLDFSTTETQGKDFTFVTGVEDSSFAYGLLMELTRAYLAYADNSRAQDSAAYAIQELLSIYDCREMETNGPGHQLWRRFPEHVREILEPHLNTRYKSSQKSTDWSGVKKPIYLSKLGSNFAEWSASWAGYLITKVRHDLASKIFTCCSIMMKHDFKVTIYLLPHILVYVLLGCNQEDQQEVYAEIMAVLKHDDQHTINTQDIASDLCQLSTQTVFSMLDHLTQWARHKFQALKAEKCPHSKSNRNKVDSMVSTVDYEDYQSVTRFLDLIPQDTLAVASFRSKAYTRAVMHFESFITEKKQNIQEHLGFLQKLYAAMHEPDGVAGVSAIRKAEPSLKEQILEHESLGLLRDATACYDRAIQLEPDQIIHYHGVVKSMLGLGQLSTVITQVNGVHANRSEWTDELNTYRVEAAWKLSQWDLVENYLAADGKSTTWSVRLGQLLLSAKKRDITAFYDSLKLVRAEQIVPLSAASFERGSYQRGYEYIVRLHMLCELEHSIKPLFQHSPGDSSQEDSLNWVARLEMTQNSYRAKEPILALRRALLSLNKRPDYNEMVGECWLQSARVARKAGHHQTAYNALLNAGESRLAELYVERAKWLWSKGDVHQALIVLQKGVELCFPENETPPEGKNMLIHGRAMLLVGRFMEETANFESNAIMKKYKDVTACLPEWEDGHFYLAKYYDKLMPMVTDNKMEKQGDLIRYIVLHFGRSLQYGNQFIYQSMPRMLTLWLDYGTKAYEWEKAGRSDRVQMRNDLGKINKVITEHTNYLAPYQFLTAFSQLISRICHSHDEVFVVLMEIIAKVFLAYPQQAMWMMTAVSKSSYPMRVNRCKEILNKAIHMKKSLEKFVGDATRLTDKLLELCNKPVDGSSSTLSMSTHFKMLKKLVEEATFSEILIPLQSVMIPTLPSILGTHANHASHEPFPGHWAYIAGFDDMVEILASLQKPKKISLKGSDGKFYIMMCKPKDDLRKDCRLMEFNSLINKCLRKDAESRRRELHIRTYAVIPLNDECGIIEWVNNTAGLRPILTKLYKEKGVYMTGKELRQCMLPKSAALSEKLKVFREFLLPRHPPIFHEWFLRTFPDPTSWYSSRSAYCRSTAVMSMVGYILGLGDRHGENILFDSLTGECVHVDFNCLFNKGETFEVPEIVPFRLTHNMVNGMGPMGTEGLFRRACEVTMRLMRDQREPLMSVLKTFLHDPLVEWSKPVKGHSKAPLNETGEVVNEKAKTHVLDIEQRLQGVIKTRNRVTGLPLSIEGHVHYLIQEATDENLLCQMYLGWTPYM
Sequence of ATR kinase (Q8WXE1 whole entry partner): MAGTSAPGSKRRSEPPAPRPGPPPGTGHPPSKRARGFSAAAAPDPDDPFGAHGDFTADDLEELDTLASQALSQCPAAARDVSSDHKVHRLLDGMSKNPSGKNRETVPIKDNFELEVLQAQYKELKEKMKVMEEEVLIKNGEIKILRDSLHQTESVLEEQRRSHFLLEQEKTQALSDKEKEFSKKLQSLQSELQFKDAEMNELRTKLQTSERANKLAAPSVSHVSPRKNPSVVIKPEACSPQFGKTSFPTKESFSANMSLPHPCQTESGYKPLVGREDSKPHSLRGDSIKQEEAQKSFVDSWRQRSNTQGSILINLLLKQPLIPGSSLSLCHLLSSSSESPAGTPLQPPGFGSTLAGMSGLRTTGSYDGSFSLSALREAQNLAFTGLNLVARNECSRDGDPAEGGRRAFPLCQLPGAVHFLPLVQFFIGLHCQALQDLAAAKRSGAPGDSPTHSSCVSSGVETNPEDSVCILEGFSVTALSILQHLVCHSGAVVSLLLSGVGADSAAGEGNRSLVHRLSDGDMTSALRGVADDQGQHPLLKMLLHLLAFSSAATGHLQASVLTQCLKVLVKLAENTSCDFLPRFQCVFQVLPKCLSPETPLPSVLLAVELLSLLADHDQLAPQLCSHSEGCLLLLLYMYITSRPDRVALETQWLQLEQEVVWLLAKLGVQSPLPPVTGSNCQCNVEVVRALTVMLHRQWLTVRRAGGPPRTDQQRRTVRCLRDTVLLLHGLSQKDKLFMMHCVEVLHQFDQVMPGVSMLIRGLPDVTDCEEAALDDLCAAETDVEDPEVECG

For `C[C@H](O)CC(=O)N1CCC(c2nc(-c3cnc(N)c(-c4nnc(C(C)(C)C)o4)n3)n(C)n2)CC1` [Example 5, (3S)-1-[4-[5-[5-amino-6-(5-tert-butyl-1,3,4-oxadiazol-2-yl)pyrazin-2-yl]-1-methyl-1,2,4-triazol-3-yl]-1-piperidyl]-3-hydroxy-butan-1-one], the IC50 against PI3K-β is 3310 nM; on PI3K-δ, 12 nM; at ATR kinase, over 30000 nM.

As for `O=C(c1cc(Cc2n[nH]c(=O)c3ccccc23)ccc1F)N1CCN(C(=O)C2CC2)CC1` [olaparib, 4-[3-(4-cyclopropanecarbonyl-piperazine-1-carbonyl)-4-fluoro-benzyl]-2H-phthalazin-1-one, reference compound], the tumour growth result with BT474 xenograft (olaparib alone 100 mg/kg QD every day, FIG. 11) is recorded as “no significant effect on tumour growth”; with MCF7 xenograft, “minimal effect on tumour growth”.

As to `CCn1nc(C2CCN(C(=O)[C@H](O)CO)CC2)nc1-c1cnc(N)c(-c2nnc(C(C)(C)C)o2)n1` [Example 11, (2R)-1-[4-[5-[5-amino-6-(5-tert-butyl-1,3,4-oxadiazol-2-yl)pyrazin-2-yl]-1-ethyl-1,2,4-triazol-3-yl]-1-piperidyl]-2,3-dihydroxy-propan-1-one], 110 nM corresponded to half-maximal inhibition on PI3K-α [1] (IC50).

Regarding `C[C@H](CO)C(=O)N1CCC(c2nc(-c3cnc(N)c(-c4nnc(C(C)(C)C)o4)n3)n(C)n2)CC1` [Example 6, (2R)-1-[4-[5-[5-amino-6-(5-tert-butyl-1,3,4-oxadiazol-2-yl)pyrazin-2-yl]-1-methyl-1,2,4-triazol-3-yl]-1-piperidyl]-3-hydroxy-2-methyl-propan-1-one], the IC50 is 3420 nM at PI3K-β, under 12 nM against PI3K-δ and over 30000 nM against ATR kinase.

Turning to `Cn1nc(C2CCN(C(=O)CC(=O)O)CC2)nc1-c1cnc(N)c(-c2nnc(C(C)(C)C)o2)n1` [Example 8, 3-[4-[5-[5-amino-6-(5-tert-butyl-1,3,4-oxadiazol-2-yl)pyrazin-2-yl]-1-methyl-1,2,4-triazol-3-yl]-1-piperidyl]-3-oxo-propanoic acid], the IC50 against PI3K-α [2] is 24 nM; against PI3K-β, 1520 nM; on PI3K-δ, 12 nM; against PI3K-α [1], 590 nM; on ATR kinase, over 30000 nM.

Turning to `C[C@@H](O)CC(=O)N1CCC(c2nc(-c3cnc(N)c(-c4nnc(C(C)(C)C)o4)n3)n(C)n2)CC1` [Example 4, (3R)-1-[4-[5-[5-amino-6-(5-tert-butyl-1,3,4-oxadiazol-2-yl)pyrazin-2-yl]-1-methyl-1,2,4-triazol-3-yl]-1-piperidyl]-3-hydroxy-butan-1-one], the IC50 was 2910 nM against PI3K-β, under 12 nM against PI3K-δ and over 30000 nM on ATR kinase.

On to `CCn1nc(C2CCN(C(=O)[C@@H](O)CO)CC2)nc1-c1cnc(N)c(-c2nnc(C(C)(C)C)o2)n1` [Example 10, (2S)-1-[4-[5-[5-amino-6-(5-tert-butyl-1,3,4-oxadiazol-2-yl)pyrazin-2-yl]-1-ethyl-1,2,4-triazol-3-yl]-1-piperidyl]-2,3-dihydroxy-propan-1-one], for which the IC50 on PI3K-α [1] was 85 nM.

For the molecule `NC1(C(=O)N[C@@H](CCO)c2ccc(Cl)cc2)CCN(c2ncnc3[nH]ccc23)CC1` [AZD5363, (S)-4-amino-N-(1-(4-chlorophenyl)-3-hydroxypropyl)-1-(7H-pyrrolo[2,3-d]pyrimidin-4-yl)piperidine-4-carboxamide, reference compound], the tumour growth entry is given as “partially inhibited tumour growth” in the test with BT474 xenograft (AZD5363 alone 100 mg/kg BID, 2 days on/5 days off, vs vehicle, FIG. 10) and “partially inhibited tumour growth” with BT474 xenograft (AZD5363 alone 170 mg/kg BID, 2 days on/5 days off, vs vehicle, FIG. 9).

Regarding `Cn1nc(C2CCN(C(=O)C(C)(C)O)CC2)nc1-c1cnc(N)c(-c2nnc(C(C)(C)C)o2)n1` [Example 7, 1-[4-[5-[5-amino-6-(5-tert-butyl-1,3,4-oxadiazol-2-yl)pyrazin-2-yl]-1-methyl-1,2,4-triazol-3-yl]-1-piperidyl]-2-hydroxy-2-methyl-propan-1-one], the IC50 on PI3K-α [2] is 37 nM; against PI3K-β, 6260 nM; on PI3K-δ, 14 nM; on PI3K-α [1], 420 nM; at ATR kinase it was over 30000 nM.

Regarding `C[C@@H](Nc1cc(F)cc(F)c1)c1cc(C(=O)N(C)C)cc2c(=O)cc(N3CCOCC3)oc12` [AZD8186, 8-((1R)-1-(3,5-difluorophenylamino)ethyl)-N,N-dimethyl-2-morpholino-4-oxo-4H-chromene-6-carboxamide, reference compound], the tumour growth result in the test on HCC70 xenograft is given as “partially inhibited tumour growth”.

With `CCn1nc(C2CCN(C(=O)CC(=O)O)CC2)nc1-c1cnc(N)c(-c2nnc(C(C)(C)C)o2)n1` [Example 9, 3-[4-[5-[5-amino-6-(5-tert-butyl-1,3,4-oxadiazol-2-yl)pyrazin-2-yl]-1-ethyl-1,2,4-triazol-3-yl]-1-piperidyl]-3-oxo-propanoic acid], the IC50 against PI3K-β is 640 nM; against PI3K-δ, under 10 nM.

One may read the IC50 as the concentration that gives 50% inhibition. A high value points to weaker potency.
